Nine compounds from patent US10881107B2, “Antimicrobial compositions containing alkylpyrazines and their uses” (ROOMBIOTIC GMBH, priority 2015, dated 2021) can be followed below.

The assay can be described thus: antimicrobial activity test of alkyl pyrazine compounds or mixtures. It counts as cell-based. An excerpt:
Several alkyl pyrazine compounds or mixtures thereof have been tested for their antimicrobial activity.

`Cc1cnc(C)c(C)n1` [2,3,5-Trimethylpyrazine, reference compound]: the Antimicrobial activity entry is listed as “No”.

With `Cc1nccnc1C` [2,3-Dimethylpyrazine, reference compound], the Antimicrobial activity entry is given as “Yes” and the “Degree of antimicrobiai activity” value was “Weak”.

Turning to `Cc1cnc(C)cn1` [2,5-Dimethylpyrazine, reference compound], the Antimicrobial activity result is “Yes” and the “Degree of antimicrobiai activity” value was “Weak”.

`CC(=O)c1cnccn1` [2-Acetylpyrazine, reference compound]: the Antimicrobial activity result was “No”.

On to `COc1nccnc1CC(C)C` [2-Isobutyl-3-methoxypyrazine], for which the Antimicrobial activity result is “Yes” and the “Degree of antimicrobiai activity” value is on record as “Strong”.

Regarding `Cc1nccnc1CC(C)C` [2-Isobutyl-3-methylpyrazine], the Antimicrobial activity entry is “Yes” and the “Degree of antimicrobiai activity” value is on record as “Strong”.

On to `CC(C)Cc1cnccn1` [2-Isobutylpyrazine], for which the Antimicrobial activity entry is reported as “Yes” and the “Degree of antimicrobiai activity” value was “Strong”.

For the compound `CC(C)c1cnccn1` [2-Isopropylpyrazine], the Antimicrobial activity entry was “Yes” and the “Degree of antimicrobiai activity” value was “Strong”.

Turning to `Cc1nc(C(C)C)c(C(C)C)nc1C(C)C` [TS-73], the Antimicrobial activity result is recorded as “No”.
